From patent publication US20170114049A1, “2,5-DISUBSTITUTED CYCLOPENTANE CARBOXYLIC ACIDS FOR THE TREATMENT OF RESPIRATORY TRACT DISEASES” (BAYER PHARMA AKTIENGESELLSCHAFT, priority 2014, published 2017)

Tests used:
Type in all cases: biochemical
MMP-9 = biological target: T1, MMP-9 (Homo sapiens, UniProt P14780); test: In vitro MMP-9 inhibition test
T1 construct: purchased R&D Systems 911-MP

MMP-13 = biological target: T2, MMP-13 (Homo sapiens, UniProt P45452); test: In vitro MMP-13 inhibition test
T2 construct: purchased R&D Systems 511-MP
Excerpt: (§1) The MMP-mediated amidolytic cleavage of a suitable peptide substrate leads to an increase in fluorescent light here too. The signal intensity of the fluorescent light is directly proportional to the enzyme activity. The active concentration of a test compound at which half the enzyme is inhibited (50% signal intensity of the fluorescent light) is reported as the […].
(§2) Recombinant MMP-13 (from R&D Systems, 511-MP) is chemically activated in accordance with the manufacturer's instructions using APMA. 1 μl of the test compound to be analysed (as a solution in DMSO, suitable concentrations, for example, 1 nM to 30 μM) is pipetted into 24 μl of activated enzyme (final concentration, for example, 0.1 nM) in reaction buffer (50 mM Tris/HCl pH 7.5, 10 mM CaCl2, 150 mM NaCl, 0.05% Brij®-35) in a white 384-hole microtiter plate (MTP). The enzymatic reaction is started by adding the intramolecularly quenched Mca-Pro-Leu-Gly-Leu-Dpa(Dnp)-Ala-Arg-NH2 substrate (final concentration, for example, 10 μM; R&D Systems, ES-001), so as to result in a total test volume of 50 μl. The course of the MMP-13 reaction is measured by measuring the fluorescence intensity (excitation 320 nm, emission 410 nm) over a suitable period of time (for example over 120 min at a temperature of 32° C.).

MMP-1 = biological target: T3, MMP-1 (Homo sapiens, UniProt P03956); test: In vitro MMP-1 inhibition test
T3 construct: purchased R&D Systems 901-MP
T3 sequence (P03956 100-469): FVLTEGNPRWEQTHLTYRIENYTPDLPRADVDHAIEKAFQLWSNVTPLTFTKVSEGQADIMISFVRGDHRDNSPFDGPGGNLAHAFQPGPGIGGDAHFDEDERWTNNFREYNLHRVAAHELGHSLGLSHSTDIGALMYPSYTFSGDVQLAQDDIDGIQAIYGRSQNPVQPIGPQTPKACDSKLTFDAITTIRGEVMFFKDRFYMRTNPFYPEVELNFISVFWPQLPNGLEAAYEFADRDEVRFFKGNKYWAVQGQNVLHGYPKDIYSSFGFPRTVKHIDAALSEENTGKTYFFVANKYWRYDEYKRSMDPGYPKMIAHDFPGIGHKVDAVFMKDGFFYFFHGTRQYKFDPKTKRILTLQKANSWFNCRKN
Excerpt: as §1
as §2, with “MMP-1” for “MMP-13”, “901-MP)” for “511-MP)”, “2” for “0.1”

MMP-8 = biological target: T4, MMP-8 (Homo sapiens, UniProt P22894); test: In vitro MMP-8 inhibition test
T4 construct: purchased R&D Systems 908-MP
T4 sequence (P22894 101-467): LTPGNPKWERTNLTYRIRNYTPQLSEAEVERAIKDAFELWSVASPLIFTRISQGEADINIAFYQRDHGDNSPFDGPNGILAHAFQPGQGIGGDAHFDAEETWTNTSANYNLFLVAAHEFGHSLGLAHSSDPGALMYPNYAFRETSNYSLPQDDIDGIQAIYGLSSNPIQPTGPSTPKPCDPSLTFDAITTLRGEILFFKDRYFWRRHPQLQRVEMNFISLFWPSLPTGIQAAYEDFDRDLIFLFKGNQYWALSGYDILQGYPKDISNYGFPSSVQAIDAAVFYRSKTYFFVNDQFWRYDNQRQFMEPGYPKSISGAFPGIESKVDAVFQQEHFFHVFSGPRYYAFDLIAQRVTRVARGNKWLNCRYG
Excerpt: as §1
as §2, with “MMP-8” for “MMP-13”, “908-MP)” for “511-MP)”, “0.5” for “0.1”

mouse MMP-7 = biological target: T5, mouse MMP-7 (Mus musculus, UniProt Q10738); test: In vitro mouse MMP-7 inhibition test
T5 construct: purchased R&D Systems 2967-MP
T5 sequence (Q10738 95-264): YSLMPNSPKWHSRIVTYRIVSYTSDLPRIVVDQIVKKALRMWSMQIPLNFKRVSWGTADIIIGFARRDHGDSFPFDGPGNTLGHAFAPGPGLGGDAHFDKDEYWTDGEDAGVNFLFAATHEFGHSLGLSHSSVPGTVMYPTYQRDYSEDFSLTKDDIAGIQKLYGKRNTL
Excerpt: as §1
Recombinant mouse MMP-7 (from R&D Systems, 2967-MP) is chemically activated in accordance with the manufacturer's instructions using APMA. 1 μl of the test compound to be analysed (as a solution in DMSO, suitable concentrations, for example, 1 nM to 30 μM) is pipetted into 24 μl of activated enzyme (final concentration, for example, 0.5 nM) in reaction buffer (50 mM Tris/HCl pH 7.5, 10 mM CaCl2, 150 mM NaCl, 0.05% Brij®-35) in a white 384-hole microtiter plate (MTP). The enzymatic reaction is started by adding the intramolecularly quenched Mca-Lys-Pro-Leu-Gly-Leu-Dpa(Dnp)-Ala-Arg-NH2 substrate (final concentration, for example, 5 μM; R&D Systems, ES-010), so as to result in a total test volume of 50 μl. The course of the MMP-7 reaction is measured by measuring the fluorescence intensity (excitation 320 nm, emission 410 nm) over a suitable period of time (for example over 120 min at a temperature of 32° C.).

T1 sequence (P14780 107-707 limits assumed): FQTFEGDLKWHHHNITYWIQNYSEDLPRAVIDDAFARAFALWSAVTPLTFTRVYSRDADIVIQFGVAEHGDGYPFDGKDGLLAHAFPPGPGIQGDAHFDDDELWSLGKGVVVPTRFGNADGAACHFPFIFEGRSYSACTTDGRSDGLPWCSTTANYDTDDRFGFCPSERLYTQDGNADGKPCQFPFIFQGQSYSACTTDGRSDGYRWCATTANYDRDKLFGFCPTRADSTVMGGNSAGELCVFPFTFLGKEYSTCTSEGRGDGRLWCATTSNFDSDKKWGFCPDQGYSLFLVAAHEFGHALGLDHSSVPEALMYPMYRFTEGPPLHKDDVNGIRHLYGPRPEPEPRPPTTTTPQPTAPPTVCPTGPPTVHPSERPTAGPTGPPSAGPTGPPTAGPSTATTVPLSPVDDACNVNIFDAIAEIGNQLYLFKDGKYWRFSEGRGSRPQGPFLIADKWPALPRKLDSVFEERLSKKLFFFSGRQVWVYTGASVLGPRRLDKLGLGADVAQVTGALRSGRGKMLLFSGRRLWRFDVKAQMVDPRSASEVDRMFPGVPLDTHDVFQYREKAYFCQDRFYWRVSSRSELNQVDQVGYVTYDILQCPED

Compound	IC50 (MMP-9)	IC50 (MMP-13)	IC50 (MMP-1)	IC50 (MMP-8)	IC50 (mouse MMP-7)
O=C(O)[C@H]1[C@H](Cn2nnc3ccc(C(F)(F)F)cc3c2=O)CC[C@@H]1C(=O)c1ccc(OCC2CCOCC2)cc1 (racemic) [Example 7, (+/−)-(1RS,2SR,5RS)-2-{[4-Oxo-6-(trifluoromethyl)-1,2,3-benzotriazin-3(4H)-yl]methyl}-5-[4-(tetrahydro-2H-pyran-4-ylmethoxy)benzoyl]cyclopentanecarboxylic acid]	120 nM	140 nM	6.5 µM	1 nM	
O=C(O)[C@@H]1[C@@H](Cn2nnc3ccc(C(F)(F)F)cc3c2=O)CC[C@H]1C(=O)c1ccc(OCCC2CCOCC2)cc1 (single isomer, unassigned) [Example 11, (+)-(1RS,2SR,5RS)-2-{[4-Oxo-6-(trifluoromethyl)-1,2,3-benzotriazin-3(4H)-yl]methyl}-5-{4-[2-(tetrahydro-2H-pyran-4-yl)ethoxy]benzoyl}cyclopentanecarboxylic acid]	660 nM	470 nM	27 µM	5.6 nM	210 nM
O=C(O)[C@@H]1[C@@H](Cn2nnc3ccc(C(F)(F)F)cc3c2=O)CC[C@H]1C(=O)c1ccc(SCC2CCOCC2)cc1 (single isomer, unassigned) [Example 15, (+)-(1RS,2SR,5RS)-2-{[4-Oxo-6-(trifluoromethyl)-1,2,3-benzotriazin-3(4H)-yl]methyl}-5-{4-[(tetrahydro-2H-pyran-4-ylmethyl)sulphanyl]benzoyl}cyclopentanecarboxylic acid]	150 nM	220 nM	11 µM	0.9 nM	
O=C(O)[C@H]1[C@H](Cn2nnc3ccccc3c2=O)CC[C@@H]1C(=O)c1ccc(OCC2CCOCC2)cc1 (stereo in doubt) [Example 1, (+/−)-(1RS,2SR,5RS)-2-[(4-Oxo-1,2,3-benzotriazin-3(4H)-yl)methyl]-5-[4-(tetrahydro-2H-pyran-4-ylmethoxy)benzoyl]cyclopentanecarboxylic acid]	450 nM	110 nM	26 µM	11 nM	85 nM
O=C(O)[C@@H]1[C@@H](Cn2nnc3ccccc3c2=O)CC[C@H]1C(=O)c1ccc(OCC2CCOCC2)cc1 (stereo in doubt) [Example 2, (+)-(1RS,2SR,5RS)-2-[(4-Oxo-1,2,3-benzotriazin-3(4H)-yl)methyl]-5-[4-(tetrahydro-2H-pyran-4-ylmethoxy)benzoyl]cyclopentanecarboxylic acid]	360 nM	49 nM	10 µM	4.7 nM	52 nM
(+)-(1RS,2SR,5RS)-2-{[4-Oxo-6-(trifluoromethyl)-1,2,3-benzotriazin-3(4H)-yl]methyl}-5-[4-(tetra-hydro-2H-pyran-4-ylmethoxy)benzoyl]cyclopentanecarboxylic acid [Example 8]	55 nM	51 nM	1.8 µM	0.6 nM	

Other lines, results leading:

IC50 (MMP-9)	IC50 (MMP-13)	IC50 (MMP-1)	IC50 (MMP-8)	IC50 (mouse MMP-7)	Compound
960 nM	590 nM	> 40 µM	28 nM	630 nM	Cc1ccc2nnn(C[C@@H]3CC[C@H](C(=O)c4ccc(OCCC5CCOCC5)cc4)[C@H]3C(=O)O)c(=O)c2c1 (racemic) [Example 19, (+/−)-(1RS,2SR,5RS)-2-[(6-Methyl-4-oxo-1,2,3-benzotriazin-3(4H)-yl)methyl]-5-{4-[2-(letrahydro-2H-pyran-4-yl)ethoxy]benzoyl}cyclopentanecarboxylic acid]
460 nM	67 nM	> 40 µM	15 nM	130 nM	O=C(O)[C@@H]1[C@@H](Cn2nnc3ccccc3c2=O)CC[C@H]1C(=O)c1ccc(OCCC2CCOCC2)cc1 (single isomer, unassigned) [Example 5, (+)-(1RS,2SR,5RS)-2-[(4-Oxo-1,2,3-benzotriazin-3(4H)-yl)methyl]-5-{4-[2-(tetrahydro-2H-pyran-4-yl)ethoxy]benzoyl}cyclopentanecarboxylic acid]
370 nM	170 nM	> 40 µM	10 nM	200 nM	Cc1ccc2nnn(C[C@H]3CC[C@@H](C(=O)c4ccc(OCCC5CCOCC5)cc4)[C@@H]3C(=O)O)c(=O)c2c1 (single isomer, unassigned) [Example 20, (+)-(1RS,2SR,5RS)-2-[(6-Methyl-4-oxo-1,2,3-benzotriazin-3(4H)-yl)methyl]-5-{4-[2-(tetrahydro-2H-pyran-4-yl)ethoxy]benzoyl}cyclopentanecarboxylic acid]
5000 nM	460 nM	> 40 µM	98 nM	1400 nM	O=C(O)[C@H]1[C@H](Cn2nnc3ccccc3c2=O)CC[C@@H]1C(=O)c1ccc(OCCC2CCOCC2)cc1 (stereo in doubt) [Example 4, (+/−)-(1RS,2SR,5RS)-2-[(4-Oxo-1,2,3-benzotriazin-3(4H)-yl)methyl]-5-{4-[2-(tetrahydro-2H-pyran-4-yl)ethoxy]benzoyl}cyclopentanecarboxylic acid]
310 nM	230 nM	8.8 µM	3.9 nM	130 nM	O=C(O)[C@H]1[C@H](Cn2nnc3ccc(C(F)(F)F)cc3c2=O)CC[C@@H]1C(=O)c1ccc(OCCC2CCOCC2)cc1 (stereo in doubt) [Example 10, (+/−)-(1RS ,2S R,5RS)-2-{[4-Oxo-6-(trifluoromethyl)-1,2,3-benzotriazin-3(4H)-yl]methyl}-5-{4-[2-(tetrahydro-2H-pyran-4-yl)ethoxy]benzoyl}cyclopentanecarboxylic acid]
